From ChEMBL document CHEMBL1151623, “Flavonoids from Brickellia glutinosa” (J Nat Prod, 1984)

Tests used:
[1] = molecular target: Aldo-keto reductase family 1 member B1 (Homo sapiens) (UniProt P15121); assay: Inhibition of aldose reductase at 1 uM
[2] = molecular target: Aldo-keto reductase family 1 member B1 (Homo sapiens) (UniProt P15121); assay: Inhibition of aldose reductase at 0.1 uM

inhibition [1] [%] | inhibition [2] [%] | Compound
0 | 47 | COc1ccc(-c2oc3cc(O[C@@H]4O[C@H](CO)[C@@H](O)[C@H](O)[C@H]4O)c(OC)c(O)c3c(=O)c2OC)cc1O
44 | 92 | O=C1NC(=O)c2cccc3cccc1c23
78 | 95 | COc1c(-c2ccc(O)c(O)c2)oc2cc(O)cc(O)c2c1=O
71 | 97 | COc1cc2oc(-c3ccc(O)c(O)c3)c(OC)c(=O)c2c(O)c1O
21 | 64 | COc1cc2oc(-c3ccc(O)cc3)c(OC)c(=O)c2c(O)c1OC
63 | 88 | COc1cc2oc(-c3ccc(O)c(O)c3)c(OC)c(=O)c2c(O)c1OC

Compound | inhibition [1] [%] | inhibition [2] [%]
C[C@@H]1O[C@@H](Oc2c(-c3ccc(O)c(O)c3)oc3cc(O)cc(O)c3c2=O)[C@H](O)[C@H](O)[C@H]1O | 82 | 91
